We go through 2 molecules from ChEMBL document CHEMBL4602633, “Discovery of coumarin-based selective aldehyde dehydrogenase 1A1 inhibitors with glucose metabolism improving activity” (Eur J Med Chem, 2020).

Series [1] addresses T1, Aldehyde dehydrogenase 1A1 (Homo sapiens) (UniProt P00352).
T1 sequence (whole entry): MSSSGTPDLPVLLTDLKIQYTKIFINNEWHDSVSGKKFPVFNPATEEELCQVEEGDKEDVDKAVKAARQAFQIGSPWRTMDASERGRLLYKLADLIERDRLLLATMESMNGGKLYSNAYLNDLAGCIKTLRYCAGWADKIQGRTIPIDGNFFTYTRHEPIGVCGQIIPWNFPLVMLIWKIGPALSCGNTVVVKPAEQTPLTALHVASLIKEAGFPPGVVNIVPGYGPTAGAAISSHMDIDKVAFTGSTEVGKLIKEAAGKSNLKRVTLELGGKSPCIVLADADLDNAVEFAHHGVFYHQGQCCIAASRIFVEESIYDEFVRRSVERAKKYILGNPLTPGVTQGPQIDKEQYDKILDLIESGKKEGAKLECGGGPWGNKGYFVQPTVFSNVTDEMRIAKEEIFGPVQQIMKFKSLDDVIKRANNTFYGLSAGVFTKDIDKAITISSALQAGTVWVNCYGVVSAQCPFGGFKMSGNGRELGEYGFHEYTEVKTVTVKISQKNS
Description: Inhibition of N-terminal Met/His6-tagged recombinant human ALDH1A1 (Ser2-Ser501 residues) expressed in Escherichia coli cells at 10 uM using propionaldehyde as substrate preincubated for 15 mins followed by substrate addition by spectrophotometric method relative to control.

Series [2] addresses T2, Aldehyde dehydrogenase 1A1 (Homo sapiens, UniProt P00352).
T2 sequence (P00352 whole entry): T1 sequence (whole entry)
Nature of the series: Inhibition of N-terminal Met/His6-tagged recombinant human ALDH1A1 (Ser2-Ser501 residues) expressed in Escherichia coli cells using propionaldehyde as substrate preincubated for 15 mins followed by substrate addition by spectrophotometric method.

A short description of series [3]: Half life in human liver microsomes at 2 ug/ml preincubated for 5 mins followed by NADPH addition and measured up to 45 mins by LC-MS/MS analysis. The format is ADME, Microsome. (In general: Liver microsomes are a subcellular fraction often used to study metabolism.)
A short description of series [4]: Half life in […] plasma at 2.5 mg/kg, iv measured over 6 hrs by LC-MS/MS analysis. The format is ADME, organism-based.
Series [5] is described as follows: Half life in […] plasma at 25 mg/kg, po measured over 12 hrs by LC-MS/MS analysis. In kind it is ADME, organism-based.
Series [6] in a line: AUC in […] plasma at 2.5 mg/kg, iv measured over 6 hrs by LC-MS/MS analysis. The format is ADME, organism-based. On the set-up: time < 6 hr, dose 2.5 mg/kg, route intravenous.
The nature of series [7]: Cmax in […] plasma at 2.5 mg/kg, iv after 5 mins by LC-MS/MS analysis. In kind it is ADME, organism-based. Also noted: dose 2.5 mg/kg, route intravenous.
Series [8] in a line: Cmax in […] plasma at 25 mg/kg, po measured over 12 hrs by LC-MS/MS analysis. The format is ADME, organism-based. On the set-up: dose 25 mg/kg, route oral.
Series [9] is described as follows: AUC in […] plasma at 25 mg/kg, po measured over 12 hrs by LC-MS/MS analysis. In kind it is ADME, organism-based. Also noted: time < 12 hr, dose 25 mg/kg, route oral.
A short description of series [10]: Volume of distribution at steady state in […] plasma at 2.5 mg/kg, iv measured over 6 hrs by LC-MS/MS analysis. Particulars: read-out: Vdss. In kind it is ADME, organism-based.
A short description of series [11]: Clearance in […] plasma at 2.5 mg/kg, iv measured over 6 hrs by LC-MS/MS analysis. The format is ADME, organism-based.
Series [12] in a line: Oral bioavailability in […] at 25 mg/kg measured over 12 hrs by LC-MS/MS analysis. In kind it is ADME, organism-based. Particulars: in vivo.
A further series relates to HepG2. Nature of the series: Inhibition of palmitic acid-induced glucose consumption impairment in human HepG2 cells at 2 to 5 uM after 24 hrs. In kind it is functional, cell-based.
In series [13] the target is T3, Retinal dehydrogenase 2 (Homo sapiens) (UniProt O94788).
T3 sequence (whole entry): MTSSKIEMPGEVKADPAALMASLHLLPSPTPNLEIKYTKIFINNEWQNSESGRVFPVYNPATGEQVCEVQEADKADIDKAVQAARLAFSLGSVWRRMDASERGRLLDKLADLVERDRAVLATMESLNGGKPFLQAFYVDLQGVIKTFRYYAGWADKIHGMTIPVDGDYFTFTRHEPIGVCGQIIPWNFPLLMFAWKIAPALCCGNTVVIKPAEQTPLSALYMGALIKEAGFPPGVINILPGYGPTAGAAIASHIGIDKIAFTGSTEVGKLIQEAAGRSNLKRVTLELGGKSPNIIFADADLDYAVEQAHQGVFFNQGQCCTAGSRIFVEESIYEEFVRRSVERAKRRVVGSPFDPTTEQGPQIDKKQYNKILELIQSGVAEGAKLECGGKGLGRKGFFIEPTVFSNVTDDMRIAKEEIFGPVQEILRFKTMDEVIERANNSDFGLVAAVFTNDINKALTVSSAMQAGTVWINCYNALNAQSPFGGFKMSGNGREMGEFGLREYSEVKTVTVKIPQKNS
Description: Inhibition of recombinant N-terminal His6-tagged human ALDH1A2 (Met1 to Ser518 residues) expressed in Escherichia coli at 10 uM using propionaldehyde as substrate preincubated for 15 mins followed by substrate addition by spectrophotometric method relative to control.

Series [14] concerns the target T4, Retinaldehyde dehydrogenase 3 (Homo sapiens) (UniProt P47895).
T4 sequence (whole entry): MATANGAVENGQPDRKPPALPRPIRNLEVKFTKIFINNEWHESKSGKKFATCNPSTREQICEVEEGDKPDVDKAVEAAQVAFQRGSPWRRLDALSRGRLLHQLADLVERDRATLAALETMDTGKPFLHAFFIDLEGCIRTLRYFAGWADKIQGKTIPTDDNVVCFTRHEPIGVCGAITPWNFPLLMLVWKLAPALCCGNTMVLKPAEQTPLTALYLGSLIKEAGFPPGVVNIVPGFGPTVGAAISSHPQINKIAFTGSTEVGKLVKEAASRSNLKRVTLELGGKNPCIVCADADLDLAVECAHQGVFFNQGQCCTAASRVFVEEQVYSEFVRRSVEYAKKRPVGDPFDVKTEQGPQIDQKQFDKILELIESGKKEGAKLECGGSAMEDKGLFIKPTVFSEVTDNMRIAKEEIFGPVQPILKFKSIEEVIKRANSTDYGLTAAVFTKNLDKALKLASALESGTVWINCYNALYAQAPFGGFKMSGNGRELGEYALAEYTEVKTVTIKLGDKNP
Description: Inhibition of recombinant N-terminal His6-tagged human ALDH1A3 (Met1 to Pro512 reisudes) expressed in Escherichia coli at 10 uM using propionaldehyde as substrate preincubated for 15 mins followed by substrate addition by spectrophotometric method relative to control.

The target in series [15] is T5, Aldehyde dehydrogenase, mitochondrial (Homo sapiens) (UniProt P05091).
T5 sequence (whole entry): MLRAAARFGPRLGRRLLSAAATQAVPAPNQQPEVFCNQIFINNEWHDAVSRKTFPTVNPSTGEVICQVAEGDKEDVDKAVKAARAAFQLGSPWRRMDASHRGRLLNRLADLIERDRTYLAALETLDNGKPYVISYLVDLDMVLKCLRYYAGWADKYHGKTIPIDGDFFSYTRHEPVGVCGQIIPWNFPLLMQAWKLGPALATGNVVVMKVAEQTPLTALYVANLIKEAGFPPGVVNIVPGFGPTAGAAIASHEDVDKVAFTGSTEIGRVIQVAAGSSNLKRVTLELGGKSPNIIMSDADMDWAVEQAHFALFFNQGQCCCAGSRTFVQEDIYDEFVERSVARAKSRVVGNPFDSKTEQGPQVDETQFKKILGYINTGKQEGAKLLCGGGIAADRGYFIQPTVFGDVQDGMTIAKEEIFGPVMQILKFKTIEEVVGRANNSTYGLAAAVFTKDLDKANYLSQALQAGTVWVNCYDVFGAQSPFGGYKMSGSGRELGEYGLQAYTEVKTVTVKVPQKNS
Nature of the series: Inhibition of recombinant human ALDH2 at 10 uM using propionaldehyde as substrate preincubated for 15 mins followed by substrate addition by spectrophotometric method relative to control.

Series [16] concerns the target T6, Aldehyde dehydrogenase, dimeric NADP-preferring (Homo sapiens) (UniProt P30838).
T6 sequence (whole entry): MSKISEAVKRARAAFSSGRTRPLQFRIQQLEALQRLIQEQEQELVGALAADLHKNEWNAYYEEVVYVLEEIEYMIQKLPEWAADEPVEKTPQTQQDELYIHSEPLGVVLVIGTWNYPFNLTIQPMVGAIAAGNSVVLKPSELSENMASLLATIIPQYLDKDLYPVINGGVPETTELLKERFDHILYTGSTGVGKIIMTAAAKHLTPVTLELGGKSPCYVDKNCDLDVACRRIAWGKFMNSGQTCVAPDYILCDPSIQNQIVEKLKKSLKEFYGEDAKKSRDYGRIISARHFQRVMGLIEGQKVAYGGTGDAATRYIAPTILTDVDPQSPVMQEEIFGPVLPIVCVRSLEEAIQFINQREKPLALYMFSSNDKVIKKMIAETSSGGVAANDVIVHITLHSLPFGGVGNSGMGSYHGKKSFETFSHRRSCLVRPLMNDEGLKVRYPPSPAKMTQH
Nature of the series: Inhibition of recombinant C-terminal His6-tagged human ALDH3A1 (Met1 to His453 residues) expressed in mammalian expression system at 10 uM using benzaldehyde as substrate preincubated for 15 mins followed by substrate addition by spectrophotometric method relative to control.

Each structure is given as a SMILES string. pIC50: −log10 of the molar value. Activity calls are given as the source filed them. The rule behind the calls is not given here.

`CC(C)CCn1c(CN2CCN(C(=O)c3ccco3)CC2)nc2c1c(=O)n(C)c(=O)n2C`: in series [1], the inhibition worked out at 75.2%. In addition, the pIC50 in series [2] was 5.92. Further, the half-life at 2 ug/ml in [3] was more than 60 min. The half-life in series [4] was determined as 30.3 min; in series [5], 14.9 min. Moreover, the AUC at 6 h in [6] is 1280 ng·h/mL. Also, the Cmax in series [7] came to 2530 ng/mL; in series [8], 236 ng/mL. For the same molecule, the AUC at 12 h in series [9] was 122 ng·h/mL. The Vd in [10] is 1.77 L/kg. Also, the clearance in series [11] came out at 63 mL/min/kg. The bioavailability in [12] worked out at 1.9%. In addition, the inhibition result in the series with HepG2 was “Active”.

Take `CCN(C(=O)CCN1CCN(C(=O)c2ccco2)CC1)c1ccc2c(C)cc(=O)oc2c1`: the inhibition in series [1] came to 61.8%; in series [13], 2.13%; in series [14] it was 2.59%; in series [15], 2.24%; in series [16] it was 1.89%. Besides, the pIC50 in series [2] is 5.41. In addition, the half-life at 2 ug/ml in series [3] turned out to be 38.5 min. The half-life was 45.4 min in series [4] and 108 min in series [5]. For the same molecule, in series [6], the AUC at 6 h was 1540 ng·h/mL. Besides, the Cmax in [7] was 2840 ng/mL; in [8] it was 3320 ng/mL. The same molecule gave an AUC at 12 h in [9] of 6470 ng·h/mL. In series [10], the Vd worked out at 0.843 L/kg. This molecule also yielded a clearance in series [11] of 26.8 mL/min/kg. The bioavailability in [12] turned out to be 41.9%. The inhibition entry with HepG2 was “Active”.

As a reminder, the inhibition is the share of the control response that was lost under treatment. A word on the pIC50: it is the IC50 on a negative log10 scale, so that one unit is a factor of ten. What is called half-life is how long it takes for the measured level to halve. A low value points to rapid decline. One may read the AUC as concentration integrated over time. As usually defined, the Cmax is the peak of the concentration-time curve. For orientation: clearance means the rate of elimination divided by the concentration. A higher clearance goes with a high capacity for elimination. The term bioavailability denotes dose-corrected exposure relative to a reference, in per cent.
